Data published in article PMC10112521, “High-throughput AR dimerization assay identifies androgen disrupting chemicals and metabolites” (Frontiers in Toxicology, 2023).
Where two headings read alike, the source gives them in different places.

Experiments:
AR2 cells (HepG2-AR2) [1] = assay: Alamar Blue (resazurin) post hoc cell viability / cytotoxicity assay in AR2 cells
Description: (§1) For antagonist mode and cytotoxicity data, well-level normalized response (resp) was calculated as: resp=100 * RLU−bval/pval−bval where pval is the median RLU value of the MEC positive control wells (minimum four wells).

AR = test system: AR; set-up: method as in Kleinstreuer et al., 2017; settings: cited from earlier work
AR2 cells (HepG2-AR2) [2] = test system: AR2 cells (HepG2-AR2)
Description: as §1

[3] = test system: full-length human AR and the receptor interacting domain (RID) of SRC1; set-up: method as in U.S. EPA, 2002b; settings: cited from earlier work
[4] = test system: human AR (LBD and AF2 domains) and the RID of human SRC2; set-up: method as in U.S. EPA, 2002b; settings: activity call, agonist mode, 2 h; invitroDBv3.4 ref U.S. EPA, 2002b; cited from earlier work
human AR [5] = target: T1, human AR (Homo sapiens, UniProt P10275); assay: cell-based; set-up: species or system AR2 cells (HepG2-AR2); NanoLuc complementation AR homodimerization, antagonist mode, loss of agonist-induced luminescence, AC50 by Hill fit; settings: antagonist mode, 10 nM agonist stimulus, 18 h, no CYP expressed
T1 sequence (P10275 1-920) 1: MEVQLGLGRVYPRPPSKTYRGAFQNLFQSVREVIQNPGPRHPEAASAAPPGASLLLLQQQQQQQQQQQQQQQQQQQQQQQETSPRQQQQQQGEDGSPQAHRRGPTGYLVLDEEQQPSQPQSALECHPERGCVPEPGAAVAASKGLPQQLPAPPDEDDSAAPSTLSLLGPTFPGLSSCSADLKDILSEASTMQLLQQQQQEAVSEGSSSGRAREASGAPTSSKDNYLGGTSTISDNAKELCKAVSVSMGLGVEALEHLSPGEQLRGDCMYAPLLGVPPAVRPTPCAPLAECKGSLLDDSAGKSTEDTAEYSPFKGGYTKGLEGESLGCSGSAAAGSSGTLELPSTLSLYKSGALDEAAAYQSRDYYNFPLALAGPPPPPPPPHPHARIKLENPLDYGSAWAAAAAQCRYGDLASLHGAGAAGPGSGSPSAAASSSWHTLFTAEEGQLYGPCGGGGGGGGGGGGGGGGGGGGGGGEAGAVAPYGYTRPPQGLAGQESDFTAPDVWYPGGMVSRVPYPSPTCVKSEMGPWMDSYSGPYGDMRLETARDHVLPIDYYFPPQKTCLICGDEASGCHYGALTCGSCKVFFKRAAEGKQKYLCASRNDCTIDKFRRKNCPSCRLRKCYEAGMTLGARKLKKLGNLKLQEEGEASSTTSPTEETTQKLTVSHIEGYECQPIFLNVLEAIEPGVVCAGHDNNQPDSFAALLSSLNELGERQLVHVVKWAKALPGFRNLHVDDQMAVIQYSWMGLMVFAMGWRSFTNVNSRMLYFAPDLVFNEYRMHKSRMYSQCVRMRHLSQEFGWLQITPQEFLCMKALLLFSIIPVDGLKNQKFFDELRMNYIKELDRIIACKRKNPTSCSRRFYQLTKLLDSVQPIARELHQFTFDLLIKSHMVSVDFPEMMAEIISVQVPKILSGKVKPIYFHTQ
T1 sequence (P10275 1-920) 2: T1 sequence (P10275 1-920) 1

human AR [6] = target: T1, human AR; assay: AR2 assay, antagonist mode: disruption of R1881 (10 nM)-induced AR homodimerization in HepG2-AR2 cells; assay type: cell-based
human AR [7] = target: T1, human AR; assay: AR2 assay, agonist mode: ligand-dependent AR homodimerization (NanoBiT luciferase complementation) in stable HepG2-AR2 cells; assay type: cell-based; settings: for AR2 agonist: activity call, agonist mode; for hill_gw: Hill model gain slope (Hill coefficient); for hill_gw / hill_tp: 0 given where win_model is Constant; for hill_tp: Hill model top (efficacy); for win_model: winning concentration-response model (Constant, Hill, Gain-Loss);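 as to hill tp: Log2 fold change of luminescence over DMSO vehicle wells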;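 as to max med: Log2 fold change of luminescence over DMSO vehicle wells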
human AR [8] = target: T1, human AR; assay: cell-based; set-up: species or system AR2 cells (HepG2-AR2); NanoLuc complementation AR homodimerization, agonist mode, luminescence gain, AC50 by Hill fit; settings: agonist mode, 18 h, no CYP expressed
[9] = spid Viability, sheet antagonist_fits
[10] = spid Viability, sheet antagonist_fits, 0 where win_model is Constant
[11] = spid=Bgal, read-out: hill_ga (converted)
[12] = spid AR_antagonist, sheet antagonist_fits
[13] = spid AR_antagonist, sheet antagonist_fits, 0 where win_model is Constant
[14] = AR agonist reference class ref Kleinstreuer et al., 2017
[15] = sheet agonist_fits, maximum median response
[16] = activity call, 8 h, single protocol detects agonists and antagonists, invitroDBv3.4 ref U.S. EPA, 2002b
[17] = activity call, 16 h, single protocol detects agonists and antagonists, invitroDBv3.4 ref U.S. EPA, 2002b
[18] = spid=No_RNA, read-out: hill_ga (converted)

SMILES	UPitt agonist [4]	max_med (maximum median response) (AR2 cells (HepG2-AR2) [1]; [9])	hill_tp (Hill model top) (AR2 cells (HepG2-AR2) [1]; [10])	max_med (maximum median response) (human AR [6]; [12])	win_model (winning concentration-response model) (human AR [6]; [12])	hill_gw (Hill model slope) (human AR [6]; [13])	hill_tp (Hill model top) (human AR [6]; [13])	hill_gw (human AR [7]; sheet agonist_fits)	hill_tp (human AR [7]; sheet agonist_fits)	max_med (human AR [7]; [15])	win_model (human AR [7]; sheet agonist_fits)	AC50 (human AR [8]; hill_ga, spid=Bgal) [µM]	also measured
C[C@]12CCC(=O)C[C@@H]1CC[C@@H]1[C@@H]2CC[C@]2(C)[C@@H](O)CC[C@@H]12 [5alpha-Dihydrotestosterone]	0	–	–	–	–	–	–	–	–	–	–	–	hill_tp (Hill model top) (AR2 cells (HepG2-AR2) [1]): 25.0955; max_med (maximum median response) (AR2 cells (HepG2-AR2) [1]): 25.6282; Agonist reference (AR): Moderate; hill_ga (Hill model log AC50) (AR2 cells (HepG2-AR2) [2]): 1.263; OT 8 hr [3]: 1; OT 16 hr [3]: 1
CC(C)=CC1C(C(=O)OCN2C(=O)C3=C(CCCC3)C2=O)C1(C)C (stereo not shown) [Tetramethrin]	0	11.4832	20.7059	7.623	Hill	3.974	4.695	4.525	0.4941	0.4102	Hill	–	AC50 (human AR [5]; [11]): 43.1 µM; Agonist reference (AR; [14]): Inactive; activity call in agonist mode (human AR [7]; 128-chemical evaluation, 18 h, active = maximal median response >5*bmad): inactive; AR2 agonist (human AR [7]; 18 h): 0; OT 8 hr [3, 16]: 1; OT 16 hr [3, 17]: 1
N#Cc1ccc(C(c2ccc(C#N)cc2)n2cncn2)cc1 [Letrozole]	–	11.0349	0	39.7548	Hill	1.809	49.9358	3.273	5.82	6.074	Gain-Loss	> 99.9	AC50 (human AR [5]; hill_ga, spid=No_RNA): 54.9 µM
C[C@]12CC[C@@H]3c4ccc(O)cc4CC[C@H]3[C@@H]1CCC2=O [Estrone]	–	20.7469	20.0823	84.5958	Hill	1.278	83.5344	0.4978	4.258	3.757	Hill	–	AC50 (human AR [5]; [11]): 0.556 µM; AC50 (human AR [5]; [18]): 0.707 µM; AC50 (human AR [8]; [11]): 4.32 µM; AC50 (human AR [8]; [18]): 2.63 µM
CCCSP(=O)(OCC)SCCC [Ethoprop]	–	22.3553	18.1513	30.1172	Hill	1.091	36.6932	–	–	–	–	> 99.9	max_med (human AR [7]): -0.01755
C[C@]12CC[C@@H]3c4ccc(O)cc4C[C@@H](CCCCCCCCC[S+]([O-])CCCC(F)(F)C(F)(F)F)[C@H]3[C@@H]1CC[C@@H]2O (stereo partly shown) [Fulvestrant]	0	0.2489	0	30.2853	Hill	0.7802	36.6036	–	0	0.04086	Constant	–	Agonist reference (AR; [14]): Inactive; AR2 agonist (human AR [7]; 18 h): 0; OT 8 hr [3, 16]: 0; OT 16 hr [3, 17]: 0
O=C1C[C@@H](c2ccc(O)cc2)Oc2cc(O)cc(O)c21 [Naringenin]	–	0.3009	0	–	Hill	8	–	8	0.1206	0.1409	Gain-Loss	> 99.9	AC50 (human AR [5]; hill_ga, spid=Bgal): 49.8 µM; AC50 (human AR [5]; hill_ga, spid=No_RNA): 57.7 µM; hill_tp (Hill model top) (human AR [6]): 38.8754; max_med (maximum median response) (human AR [6]): 37.0321
